Where a name gives a salt, the structure may show the parent alone. Read-outs that look alike come from different tables or passages of the source.
Legend:
angiotensin II receptor = assay: Adrenal Glomerulosa Test System: I125-angiotensin II binding to adrenal membranes; conditions: percent inhibition of I125 angiotensin binding at 10^-5 M of antagonist; rat adrenal membranes; 0.1 nM I125-angiotensin II
Description: The ability for compounds of Formula I to block angiotensin II receptor binding was determined using the adrenal glomerulosa assay.
Binding of I^125 -angiotensin II to adrenal membranes was routinely carried out in 96-well filtration plates. Adrenal membranes were prepared from the capsular portion (glomerulosal layer attached) of rat adrenal glands by differential centrifugation. Briefly, capsules were homogenized in a solution containing sucrose, 250 mM; MgCl2, 1 mM; and tris, 5 mM at pH 7.5 and 4° C. using a polytron at setting 5 for 20 seconds. The homogenate was stirred, gently, for 15 minutes at 4° C. and then centrifuged 10 minutes, at 1000×g, 4° C. The supernatant was centrifuged 30 minutes, at 30,000 ×g, 4° C. and the resulting pellet resuspended in 50 mM tris. Membrane preparations were stored in aliquots at -70° C. until used. Binding of I^125 -angiotensin II to adrenal membranes was performed at room temperature for 90 minutes in 96-well plates containing a hydrophilic polyvinylidene fluoride membrane (0.45 μm, millipore-GV multiscreen). Each 250 μl incubate contained the following (final concentration): tris, 50 mM; NaCl, 120 mM; MgCl2, 5 mM; dithiothrietol 1 mM; bovine serum albumin, 0.05%; I^125 -angiotensin II, 0.1 nM; and adrenal membrane protein, 8-15 μg. Antagonists were added in concentrations from 10 nM to 100 μM. Non-specific binding was measured in the presence of 0.1 μM Sar1, Ile8 angiotensin II. Binding was terminated by vacuum filtration. Receptor-ligand complex trapped on filters was washed 3 times with 300 μl ice-cold wash solution (tris, 50 mM; NaCl, 120 mM; MgCl2, 5 mM; dithiothrietol, 1 mM). Filter discs were dried, punched out and counted in a gamma counter at 52% efficiency. Specific binding represented 96% of total binding (approximately 150 fmol angiotensin II/mg protein). Data are expressed as the percent inhibition of I^125 angiotensin binding at 10^-5 M of antagonist.

[1] = molecular target: T1, angiotensin-induced vasoconstriction (rabbit aorta) (Oryctolagus cuniculus, UniProt P34976); assay: Rabbit Aorta Test System: antagonism of angiotensin II-induced contraction of aortic rings; type: cell-based, New Zealand white rabbits
T1 construct: the thoracic aortas were removed and cleaned of excess fat and connective tissue; from tissue; host or cells: thoracic aorta rings of New Zealand white rabbits
T1 sequence (P34976 1-359): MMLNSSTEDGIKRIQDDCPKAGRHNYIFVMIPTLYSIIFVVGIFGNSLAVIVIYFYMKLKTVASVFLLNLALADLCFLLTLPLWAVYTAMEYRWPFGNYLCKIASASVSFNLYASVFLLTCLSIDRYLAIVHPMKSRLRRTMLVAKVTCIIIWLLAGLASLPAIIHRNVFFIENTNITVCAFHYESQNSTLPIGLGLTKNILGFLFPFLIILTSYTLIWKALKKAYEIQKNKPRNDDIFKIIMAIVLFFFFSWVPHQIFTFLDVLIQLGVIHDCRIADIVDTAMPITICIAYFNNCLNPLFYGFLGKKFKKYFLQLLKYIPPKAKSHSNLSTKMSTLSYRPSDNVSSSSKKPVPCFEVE
Description: The ability to antagonize angiotensin-induced vasoconstriction was evaluated in the rabbit aorta test system.
New Zealand white rabbits (Hazelton, 2-3 kg) were sacrificed by cervical dislocation and the thoracic aortas were removed and cleaned of excess fat and connective tissue. Rings of tissue (3 mm wide) were mounted in 10 ml tissue baths between 2 L-shaped stainless steel hooks. The lower hook was attached to a stationary rod and the upper hook to a force displacement transducer (Grass model FT.03). The bath chambers were maintained at 37° C., aerated with 95% O2 /5% CO2, and contained physiological solution of the following composition (mM): NaCl, 117; glucose, 5.6; NaH2 PO4, 1.0; MgSO4, 0.7; KCl, 5.2; CaCl2, 1.8; NaHCO3, 26; and phentolamine HCl, 0.003.
Rings were equilibrated for 1 hour with 2 g of tension. During the equilibration period, the tissues were washed by overflow every 15 minutes. Rings were then exposed to 10^-8 M angiotensin II (AII) and were allowed to contract until a steady state was reached. Tissues were then washed every 15 minutes for 1 hour. This was repeated every hour until the AII response stabilized. A cumulative concentration-response curve to AII (10^-10 to 10^-7 M) was then obtained. At the conclusion of the concentration-response curve, tissues were washed every 2 minutes until baseline tension was reached, then every 15 minutes for 30 minutes. Compounds were added in a volume of 10 μl DMSO and allowed to incubate for 30 minutes before repeating the concentration-response curve to AII. Contractions to AII were expressed as a percent of the maximum contraction obtained in the control curve (the first AII concentration-response curve). EC50 's (concentration that contracted the tissues to 1/2 the control maximum) for each curve were calculated using a 4 parameter logistics model (NonLin, SAS institute).

[2] = pA2 = -log KB, KB = [molar concentration of antagonist]/[(EC50 AII with antagonist/EC50 AII without antagonist)-1], 30 min incubation, AII 10^-10 to 10^-7 M, read-out: Rabbit Aorta (pA2) (converted)

Row | SMILES | Adrenal Glomerulosa (% Inhibition of Binding) (angiotensin II receptor) | Kb [1, 2] | Kb [1]
1 | CCCCCCC(C(=O)OCC)n1cnc(NC(=O)c2ccccc2C(=O)O)c1 (stereo not drawn) [Example 5, 4-[(2-Carboxybenzoyl)amino]-α-hexyl-1H-imidazole-1-acetic acid ethyl ester] | 39% | 3.31 µM | 
2 | CCCCCCC(C(=O)OCC)c1ccc(NC(=O)c2ccccc2C(=O)O)cc1 (stereo not drawn) [Example 9, 4-[(2-Carboxybenzoyl)amino]-α-hexylbenzene-acetic acid ethyl ester] | 25% | 18.2 µM | 
3 | CCCCCCC(CC(=O)OC)n1cnc(NC(=O)c2ccccc2C(=O)O)c1 (stereo not drawn) [Example 10, 4-[(2-Carboxybenzoyl)amino]-β-hexyl-1H-imidazole-1-propanoic acid methyl ester] | 57% | 2.34 µM | 
4 | CCCCCCC(C#N)n1cnc(NC(=O)c2ccccc2C(=O)O)c1 (stereo not drawn) [Example 12, 4-[(2-Carboxybenzoyl)amino]-α-hexyl-1H-imidazole-1-acetonitrile] | 44% | 2.51 µM | 
5 | CCCCCCC(C(=O)OCC)n1cnc(NC(=O)C(O)(c2ccccc2)c2ccccc2)c1 (stereo not drawn) [Example 14, α-Hexyl-4-[(diphenylhydroxyacetyl)amino]-1H-imidazole-1-acetic acid ethyl ester] | 2% |  | 55 µM
6 | CCCCCCC(C(=O)OCC)n1cnc(NC(=O)C2c3ccccc3-c3ccccc32)c1 (stereo not shown) [Example 15, 4-[(9H-Fluoren-9-ylcarbonyl)amino]-αhexyl-1H-imidazole-1-acetic acid ethyl ester] | 5% | 75.9 µM | 
7 | CCCCCCC(C(=O)OCC)c1ccc(NC(=O)C2c3ccccc3-c3ccccc32)cc1 (stereo not drawn) [Example 18, 4-[(9H-Fluoren-9-ylcarbonyl)amino]-α-hexylbenzeneacetic acid ethyl ester] | 3% | 794 µM | 
8 | CCCCCCC(C(=O)O)n1cnc(NC(=O)C(CC)(c2ccccc2)c2ccccc2)c1 (stereo not drawn) [Example 26, α-Hexyl-4-[(1-oxo-2,2-diphenylbutyl)amino]-1H-imidazole-1-acetic acid] | 57% | 10.2 µM | 
9 | CCCCCCC(CC(=O)O)n1cnc(NC(=O)c2cccc(O)c2C(=O)O)c1.O (stereo not drawn) [Example 27, β-Hexyl-4-[(2-carboxy-3-hydroxybenzoyl)amino]-1H-imidazole-1-propanoic acid hydrate] | 64% | 0.141 µM | 
10 | CCCCCCC(C(=O)O)n1cnc(NC(=O)c2ccc(C)cc2C(=O)O)c1 (stereo not drawn) [Example 28, α-Hexyl-4-[(2-carboxy-4-methylbenzoyl)amino]-1H-imidazole-1-acetic a cid] | 10% | 3.47 µM | 
11 | CCCCCCC(C(=O)O)n1cnc(NC(=O)C(O)(c2ccccc2)c2ccccc2)c1 (stereo not drawn) [Example 29, α-Hexyl-[(hydroxydiphenylacetyl)amino]-1H-imidazole-1-acetic acid hydrochloride] |  |  | 25.7 µM
12 | CCCCCCC(C(=O)O)n1cnc(NC(=O)c2cccc(O)c2C(=O)O)c1 (stereo not drawn) [Example 30, α-Hexyl-4-[(2-carboxy-3-hydroxybenzoyl)amino]-1H-imidazole-1-acetic monohydrate] | 66% | 0.11 µM | 
13 | CCCCCCC(C(=O)O)n1cnc(NC(=O)C2c3ccccc3-c3ccccc32)c1 (stereo not drawn) [Example 31, α-Hexyl-9-[(9H-fluoren-9-ylcarbonyl)amino]-1H-imidazole-1-acetic acid hydrochloride] | 70% | 3.09 µM | 
14 | CCCCCCC(C(=O)O)n1cnc(NC(=O)C2c3ccccc3Oc3ccccc32)c1.Cl.O (stereo not drawn) [Example 32, α-Hexyl-4-[(9H-xanthen-9-ylcarbonyl)amino]-1H-imidazole-1-acetic acid hydrochloride monohydrate] | 54% | 21.4 µM | 
15 | CCCCCCC(C(=O)O)n1cnc(NC(=O)c2ccccc2C(=O)O)c1 (stereo not drawn) [Example 33, 4-[(2-Carboxybenzoyl)amino]-α-hexyl-1H-imidazole-1-acetic acid] | 42% | 0.631 µM | 
16 | CCCCCCC(C(=O)O)n1cnc(NC(=O)Cc2ccccc2C(=O)O)c1.O (stereo not drawn) [Example 34, α-Hexyl-4-{[(2-carboxyphenyl)acetyl]-amino}-1H-imidazole-1-aceticacid hydrate] | 31% | 1.91 µM | 
17 | CCCCCCC(C(=O)O)n1cnc(NC(=O)c2c(C(=O)O)ccc3ccccc23)c1 (stereo not drawn) [Example 35, α-Hexyl-4-{[(2-carboxy-1-naphthalenyl)carbonyl]amino}-1H-imidazole-1-acetic acid] | 36% | 2.63 µM | 

Row | SMILES | Adrenal Glomerulosa (% Inhibition of Binding) (angiotensin II receptor) | Kb [1, 2] | Kb [1]
18 | CCCCCCC(C(=O)O)n1cnc(NC(=O)c2cc(C(=O)O)ccc2O)c1 (stereo not drawn) [Example 36, α-Hexyl-4-[(2-hydroxy-5-carboxybenzoyl)amino]-1H-imidazole-1-acetic acid] | 5% | 11.7 µM | 
19 | CCCCCCC(C(=O)O)n1cnc(NC(=O)c2c(F)cccc2C(=O)O)c1 (stereo not drawn) [Example 37, 4-[(2-Carboxy-6-fluorobenzoyl)amino]-α-hexyl-1H-imidazole-1-acetic a cid hydrate (1:2.5)] | 0% | 1.58 µM | 
20 | CCCCCCC(C(=O)O)c1ccc(NC(=O)c2ccccc2C(=O)O)cc1 (stereo not drawn) [Example 38, α-Hexyl-4-[(2-carboxybenzoyl)amino]benzeneacetic acid] | 30% | 1.66 µM | 
21 | CCCCCCC(CC(=O)O)n1cnc(NC(=O)c2ccccc2C(=O)O)c1.O (stereo not drawn) [Example 39, 4-[(2-Carboxybenzoyl)amino]-β-hexyl-1H-imidazole-1-propanoic acid monohydrate] | 44% | 0.661 µM | 
22 | CCCCCCC(C(=O)O)n1cnc(NC(=O)c2c(C(=O)O)cccc2[N+](=O)[O-])c1 (stereo not drawn) [Example 40, α-Hexyl-4-[(2-carboxy-6-nitrobenzoyl)-amino]-1H-imidazole-1-acetic a cid] | 9% | 1.62 µM | 
23 | CCCCCCC(CCC(=O)O)n1cnc(NC(=O)c2ccccc2C(=O)O)c1 (stereo not shown) [Example 41, 4-[(2-Carboxybenzoyl)amino]-γ-hexyl-1H-imidazole-1-butanoic acid hemihydrate] | 30% | 0.646 µM | 
24 | CCCCCCC(C(=O)O)n1cnc(NC(=O)c2ccccc2-c2nnn[nH]2)c1.O (stereo not drawn) [Example 42, α-Hexyl-4-{[2-(tetrazol-5-yl)benzoyl]-amino}-1H-imidazole-1-acetic a cid monohydrate] | 58% | 0.331 µM | 
25 | CCCCCCC(C(=O)O)n1cnc(NC(=O)c2ccccc2CC(=O)O)c1.O (stereo not drawn) [Example 43, 4-{[2-(Carboxymethyl)benzoyl]amino}-α-hexyl-1H-imidazole-1-aceticacid monohydrate] | 0% | 0.955 µM | 
26 | CCCCCCC(C(=O)O)n1cnc(C(=O)NC2c3ccccc3-c3ccccc32)c1.Cl (stereo not drawn) [Example 44, α-Hexyl-4-{[(9H-fluoren-9-yl)amino]-carbonyl}-1H-imidazole-1-acetic acid hydrochloride] | 67% | 3.98 µM | 
27 | CCCCCCC(C(=O)O)n1cnc(NC(=O)c2cccc([N+](=O)[O-])c2C(=O)O)c1.O (stereo not drawn) [Example 45, α-Hexyl-4-[(2-carboxy-3-nitrobenzoyl)-amino]-1H-imidazole-1-acetic a cid hydrate] | 0% | 4.17 µM | 
28 | CCCCCCC(C(=O)O)c1ccc(NC(=O)C2(O)c3ccccc3-c3ccccc32)cc1 (stereo not drawn) [Example 46, α-Hexyl-4-[(9-hydroxy-9H-fluoren-9-ylcarbonyl)-amino]benzeneacetic acid] | 39% |  | 43.7 µM
29 | CCCCCCC(C(=O)O)n1nnc(NC(=O)c2ccccc2C(=O)O)n1 (stereo not drawn) [Example 47, 5-[(2-Carboxybenzoyl)amino]-α-hexyl-2H-tetrazole-2-acetic acid] | 39% | 5.01 µM | 
30 | CCCCCCC(C(=O)O)n1cnc(C(=O)NCc2ccc(O)cc2)c1.Cl (stereo not drawn) [Example 81, α-Hexyl-4-({[(4-hydroxyphenyl)methyl]-amino}carbonyl)-1H-imidazole-1-acetic acid hydrochloride] | 41% |  | 
31 | CCCCCCC(C(=O)O)n1cnc(C(=O)Nc2ccccc2O)c1.Cl (stereo not drawn) [Example 82, α-Hexyl-4-{[(2-hydroxyphenyl)amino]-carbonyl}-1H-imidazole-1-acetic acid hydrochloride] | 62% |  | 
32 | CCCCC(C(=O)O)n1cnc(C(=O)Nc2ccc(O)cc2)c1.Cl (stereo not drawn) [Example 88, α-Butyl-4-{[(4-hydroxyphenyl)amino]-carbonyl}-1H-imidazole-1-acetic acid hydrochloride] | 22% |  | 
33 | CCCCCCC(C(=O)O)n1cnc(NC(=O)c2cccc(NC(C)=O)c2C(=O)O)c1 (stereo not drawn) [Example 97, α-Hexyl-4-{[3-(acetylamino)-2-carboxybenzoyl]amino}-1H-imidazole-1-acetic acid hemihydrate] |  | 0.24 µM | 

Reference: US5073566A, “Angiotensin II antagonist 1,3-imidazoles and use thereas” (Eli Lilly and Company, priority 1989, dated 1991)
